The record followed here is patent publication US20110166123A1, “NOVEL COMPOSITIONS AND METHODS OF USE” (priority 2008, published 2011).

In general, EC50 refers to the midpoint of the concentration-response curve. A higher EC50 goes with a less potent agent.

This assay deals with human immunodeficiency virus type 1 (HIV-1). Description: microbe, parasite or virus in culture. Type of assay: cell-based. The settings on record: Human immunodeficiency virus 1, HeLa, 48 h, HIV-1 luciferase reporter, HeLa cells, 48 hours after infection. (In general: A reporter such as luciferase makes a cellular process visible.)
The compound `COc1cc2c(cc1CNc1ccc(F)cc1)c(=O)c(C(=O)O)cn2[C@H](CO)C(C)C` [Example 13A, (S)-6-((4-fluorophenylamino)methyl)-1-(1-hydroxy-3-methylbutan-2-yl)-7-methoxy-4-oxo-1,4-dihydroquinoline-3-carboxylic acid] came in with an EC50 of more than 100 nM.

The compound `COc1nc2c(cc1Cc1ccc(F)cc1F)c(=O)c(C(=O)O)cn2[C@H](CO)C(C)C` [Example 1E] registered an EC50 of 10 to 100 nM.

Compound `O=C(O)c1cn([C@H](CO)C2CCCCC2)c2cnc(Cc3cccc(Cl)c3F)cc2c1=O` [Example 5M] returned a concentration giving a half-maximal response (EC50) of 10 to 100 nM.

`CC(C)[C@@H](CO)n1cc(C(=O)O)c(=O)c2nc(Cc3cccc(Cl)c3F)ccc21` [Example 8A, 6-(3-Chloro-2-fluoro-benzyl)-1-((S)-1-hydroxymethyl-2-methyl-propyl)-4-oxo-1,4-dihydro-[1,5]naphthyridine-3-carboxylic acid] showed an EC50 of more than 100 nM.

The compound `COc1nc2c(cc1NCc1ccc(C)cc1)c(=O)c(C(=O)O)cn2[C@H](CO)C(C)C` [Example 20A, (S)-1-(1-hydroxy-3-methylbutan-2-yl)-7-methoxy-6-(4-methylbenzylamino)-4-oxo-1,4-dihydro-1,8-naphthyridine-3-carboxylic acid] yielded an EC50 of more than 100 nM.

In turn, `COc1nc2c(cc1NCc1c(F)ccc(F)c1F)c(=O)c(C(=O)O)cn2[C@H](CO)C(C)C` [Example 20GG, (S)-1-(1-hydroxy-3-methylbutan-2-yl)-7-methoxy-4-oxo-6-(2,3,6-trifluorobenzylamino)-1,4-dihydro-1,8-naphthyridine-3-carboxylic acid] displayed a concentration giving a half-maximal response (EC50) of 10 to 100 nM.

`COc1ccc(-c2cc3c(=O)c(C(=O)O)cn([C@H](CO)C(C)C)c3nc2OC)cn1` [Example 17H] displayed a concentration for a half-maximal effect (EC50) of more than 100 nM.

`COc1cc2c(cc1OCc1ccccc1C(F)(F)F)c(=O)c(C(=O)O)cn2[C@H](CO)C(C)(C)C` [Example 29C, (S)-1-(1-hydroxy-3,3-dimethylbutan-2-yl)-7-methoxy-4-oxo-6-(2-(trifluoromethyl)benzyloxy)-1,4-dihydroquinoline-3-carboxylic acid] showed a 50% effective concentration (EC50) of more than 100 nM.

For the compound `COCCCCOc1nc2c(cc1Cc1cccc(Cl)c1F)c(=O)c(C(=O)O)cn2[C@H](CO)C(C)(C)C` [Example 2J], the EC50 was 10 to 100 nM.

In turn, `COc1nc2c(cc1NCc1ccc(Cl)cc1)c(=O)c(C(=O)O)cn2[C@H](CO)C(C)C` [Example 20J, (S)-6-(4-chlorobenzylamino)-1-(1-hydroxy-3-methylbutan-2-yl)-7-methoxy-4-oxo-1,4-dihydro-1,8-naphthyridine-3-carboxylic acid] returned an EC50 of more than 100 nM.

The compound `CC(C)[C@@H](CO)n1cc(C(=O)O)c(=O)c2cc(Cc3cccc(Cl)c3F)nnc21` [Example 6, 3-(3-chloro-2-fluorobenzyl)-8-(1-hydroxy-3-methylbutan-2-yl)-5-oxo-5,8-dihydropyrido[2,3-c]pyridazine-6-carboxylic acid] displayed a concentration for a half-maximal effect (EC50) of more than 100 nM.

Turning to `COc1nc2c(cc1N(C)Cc1ccc(F)cc1)c(=O)c(C(=O)O)cn2[C@H](CO)C(C)C` [Example 20V, (S)-6-((4-fluorobenzyl)(methyl)amino)-1-(1-hydroxy-3-methylbutan-2-yl)-7-methoxy-4-oxo-1,4-dihydro-1,8-naphthyridine-3-carboxylic acid], the half-maximal effective concentration (EC50) is more than 100 nM.

In the case of `CC(C)[C@@H](CO)n1cc(C(=O)O)c(=O)c2cc(NCc3ccc(F)cc3)ccc21` [Example 22A, (S)-6-(4-fluorobenzylamino)-1-(1-hydroxy-3-methylbutan-2-yl)-4-oxo-1,4-dihydroquinoline-3-carboxylic acid], the EC50 is more than 100 nM.

Regarding `CC(C)(C)[C@@H](CO)n1cc(C(=O)O)c(=O)c2cc(Cc3cccc(Cl)c3F)c(OCc3cccnc3)nc21` [Example 2N], the EC50 was less than 10 nM.

With `COc1nc2c(cc1-c1ccc(F)cc1F)c(=O)c(C(=O)O)cn2[C@H](CO)C(C)C` [Example 17E], the EC50 is more than 100 nM.
